# How the values were obtained:
# [1] = Stability determination of pyruvate (pyruvate loss with or without hydrogen peroxide); type: physicochemical
# [2] = Total reducing power (pre-formed ABTS radical); type: biochemical; conditions: concentration was 0.005 mg/mL (footnote)
# Experimental: ABTS radical was generated by mixing 5 mL of an aqueous ABTS solution (7 mM) and 88 μL of a potassium persulfate solution (140 mM), followed by the standing in the dark for 6 h. This stock solution (1.1 mL) was diluted to 90 mL with PBS (pH 7.4) and the absorbance adjusted to 0.83. […] Absorbance at 734 nm was measured after 10 min. Quercetin was used as a reference antioxidant. Total reducing power (TRP, %) was calculated using the following equations: […]+PBS(%)=[(Abs0 min-Abs10 min)/Abs0 min]*100 TRPSample=([…]
# [3] = Inhibition (%) of ABTS radical generation; type: biochemical; conditions: concentration was 0.005 mg/mL (footnote)
# Experimental: All reagents used in this assay were prepared in phosphate buffered saline (PBS, 10 mM, pH 7.4). Sample solutions were prepared in PBS.
# […] Reaction was triggered by the addition of 120 μL of 10 mM hydrogen peroxide. Absorbance data of the reaction mixture were recorded after 10 min using a spectrophotometer set at 734 nm. Quercetin was used as a reference antioxidant.
# [4] = Oxygen radical absorbance capacity (ORAC), β-carotene retention; type: biochemical; conditions: concentration was 0.005 mg/mL (footnote); PBS control 28
# Experimental: A solution of 2,2′-azobis-(2-amidinopropane) dihydrochloride (AAPH, 0.5 M) was prepared in degassed distilled water and a β-carotene solution was prepared by centrifuging 10 mg of β-carotene in 10 mL of acetone followed by a one-fold dilution of the supernatant with the same solvent. β-carotene (60 μL) and 0.6% (w/v) phosphate buffered Tween 20 containing 0.3% (w/v) of linoleic acid (120 μL) were mixed with 935 μL of PBS in a quartz cuvette and incubated for 2 min at 50° C. 10 μL of sample solution (final assay concentration of 454 μg/mL) and AAPH (25 μL) were added into the cuvette and the reaction was monitored for 10 min using a spectrophotometer set at 452 nm. Quercetin was used as a reference antioxidant. Cuvette was maintained at 50° C. all times except when the measurement is being taken. Percentage β-carotene retention was calculated using the following equation: % β-carotene retention=100−[(Abs0 min−Abs5 min)*100 Abs0 min]
SMILES,pyruvate loss ([1]; with added hydrogen peroxide) [%],pyruvate loss ([1]; without added hydrogen peroxide) [%],% TRP (total reducing power) [2] [%],% inhibition of ABTS radical generation [3] [%],% TRP (ORAC in terms of β-Carotene retention) [4] [%]
CC(=O)C(=O)O [pyruvic acid],11,26,,,
O=c1c(O)c(-c2ccc(O)c(O)c2)oc2cc(O)cc(O)c12 [Quercetin],,,30,23,55
